Experiment [1] relates to HL-60. Description: In vitro Inhibitory concentration against HL-60 human leukemia cell line; Tested by trypan blue exclusion test. It is filed as functional, cell-based.
For experiment [2], the system named is A549. Description: In vitro Inhibitory Concentration against A549 human lung carcinoma cell line; Tested by sulforhodamine B colorimetric assay. It counts as functional, cell-based. Background: In SRB staining, fixed cells bind dye roughly in proportion to their protein.
Experiment [3] has as its system Bel-7402. Nature of the experiment: In vitro Inhibitory concentration against BEL-7402 human hepatocarcinoma cell line; Tested by sulforhodamine B colorimetric assay. It is filed as functional, cell-based.
A short description of experiment [4]: In vitro Inhibitory concentration against 3AO human ovarian carcinoma cell line; Tested by sulforhodamine B colorimetric assay. It is filed as functional.
In experiment [5] the test system is Homo sapiens. Description: In vivo antitumor activity against LS-174T human colon carcinoma in mice at 6 (mg/kgper dose). It counts as functional, organism-based.
Experiment [6] has as its system Homo sapiens. Nature of the experiment: In vivo antitumor activity against LS-174T human colon carcinoma in mice at 9 (mg/kgper dose). It is filed as functional, organism-based.
Experiment [7] relates to Homo sapiens. Description: Ratio of TRTV and CRTV at 6 (mg/kgper dose) in LS-174T human colon carcinoma implanted in mice; (TRTV=relative tumor volume of the treated group; CRTV=relative tumor volume of the control group). It counts as functional, organism-based.
Experiment [8] concerns Homo sapiens. Nature of the experiment: Ratio of TRTV and CRTV at 9 (mg/kgper dose) in LS-174T human colon carcinoma implanted in mice; (TRTV=relative tumor volume of the treated group; CRTV=relative tumor volume of the control group). It counts as functional, organism-based.

Consider CARBOPLATIN, for which the concentration for half-maximal inhibition (IC50) – broadly, the point on the concentration scale where inhibition reaches its midpoint – in experiment [1] turned out to be 2.86 µM; in experiment [2], 42.3 µM; in experiment [3], 36.1 µM; in experiment [4], 29.1 µM.

Turning to OXALIPLATIN, the values for the Inhibition tumor index in experiment [5] and in experiment [6] were 24% and 51%, respectively. Besides, the figures for the T/C in experiment [7] and in experiment [8] were 87.4% and 50.8%, respectively.

Take CISPLATIN: the IC50 in experiment [1] was found to be 0.33 µM; in experiment [2] it was 2.23 µM; in experiment [3], 0.77 µM; in experiment [4] it was 0.47 µM.

The values above are taken from ChEMBL document CHEMBL1140257, “Potential new antitumor agents from an innovative combination of camphorato, a ramification of traditional Chinese medicine, with a platinum moiety” (Bioorg Med Chem Lett, 2005).
